Experimental data published in US20250127752A1, “REDUCED REBOUND EFFECTS IN SUBJECTS TREATED FOR OVERWEIGHT OR OBESITY” (Empros Pharma AB, priority 2021, published 2025).
Read-outs that look alike come from different tables or passages of the source.

What was measured:
[1] = oral, conventional dosage form; cited from earlier work
[2] = Pre-dose (trough) plasma level of orlistat and acarbose at steady state, week 26; assay type: in vivo, human; conditions: steady state week 26, patients on active treatment
[3] = cited from earlier work; for Placebo adjusted reduction of body weight: oral administration for 6 months; for Additional weight loss relative to placebo: at one year, on average
[4] = cited from earlier work
[5] = cited from earlier work; remark: listed apart in the source

OCCN1C[C@H](O)[C@@H](O)[C@H](O)[C@H]1CO [Miglitol]
Fraction of the dose absorbed [1]: 100%

C[C@H]1O[C@H](O[C@H]2[C@H](O)[C@@H](O)[C@@H](O[C@H]3[C@H](O)[C@@H](O)C(O)O[C@@H]3CO)O[C@@H]2CO)[C@H](O)[C@@H](O)[C@@H]1N[C@H]1C=C(CO)[C@@H](O)[C@H](O)[C@H]1O (stereo partly drawn) [acarbose, O-4,6-Dideoxy-4-[[(1S,4R,5S,6S)-4,5,6-trihydroxy-3-(hydroxymethyl)cyclohex-2-enyl]amino]-α-D-glucopyranosyl-(1→4)-O-α-D-gluco-pyranosyl-(1→4)-D-glucopyranose]
Patients in whom low plasma levels were measured [2]: 3 of 75 | Placebo adjusted reduction of body weight [3]: approx. 0.5%

C[C@H]1CNCCc2ccc(Cl)cc21 [lorcaserin]
Additional weight loss relative to placebo [3]: ~3% | Body weight decrease more than placebo ([3]; human, in vivo): about 3.2 kg | Body weight decrease more than placebo, of initial body weight ([3]; human, in vivo): about 3.2%

CCCCCCCCCCC[C@@H](C[C@@H]1OC(=O)[C@H]1CCCCCC)OC(=O)[C@H](CC(C)C)NC=O [orlistat, (S)—((S)-1-((2S,3S)-3-Hexyl-4-oxooxetan-2-yl)tridecan-2-yl) 2-formamido-4-methylpentanoate]
Fraction of the dose absorbed [1]: < 3% | Plasma exposure [1]: < 5 ng/mL | Solubility in water [4]: practically insoluble in water | Water solubility [4]: less than 0.001 g/ml | Patients complaining about GI side-effects (diarrhea, oily spotting, fecal urgency) ([5]; clinical trials, conventional dosage form): ≥ 25% | Participants reporting faecal incontinence ([5]; similar 6-month trial): 5% | Participants reporting faecal incontinence ([5]; trials of longer duration): approximately 18% | Patients in whom low plasma levels were measured [2]: 27 of 75 | Additional weight loss relative to placebo [3]: ~3% | Approximate relative weight loss ([3]; conventional dosage forms): 2-3% | Placebo adjusted reduction of body weight [3]: 2-3% | Relative weight loss, best case scenario ([3]; versus placebo 6%): 10%
